Here are results for one compound from EPA's ToxValDB 9.5 (doi:10.2903/j.efsa.2008.151r).

For orientation: NOAEL means the highest tested level that showed no adverse finding. Broadly, the LOAEL is the lowest dose or exposure tested at which an adverse effect was seen.

One data set relates to Canidae. The following applies: subchronic; duration: 90 days; oral; Dog Other; body weight.
A further data set concerns Lepomis macrochirus. The following applies: chronic/long-term; duration: 28 days; body weight.
The test system of the next data set is Daphnia magna. The following applies: chronic/long-term; duration: 21 days; reproduction.
The subject of the next data set is Tagia sp. The following applies: acute; duration: 14 days; mortality.
The subject of another data set is Oryctolagus sp. The following applies: developmental; development.
Another data set concerns Typhlodromus pyri. Description: LR50; higher = less toxic. The following applies: not reported; mortality.
[1] abbreviates: reproduction developmental, reproduction.

On to `CC(C)C(O)(c1ccc(OC(F)(F)F)cc1)c1cncnc1` (configuration not stated) [Flurprimidol], for which the no-observed-adverse-effect level (NOAEL) was 1.5 mg/kg-day with Canidae; 10 mg/kg-day in the data set on Rattus norvegicus (developmental, development); 1.8 mg/kg-day with Rattus norvegicus (setting [1]); 1.96 mg/kg-day in the data set on Rattus norvegicus (subchronic, duration: 90 days, oral, F, organ weight); 9 mg/kg-day in the data set with Oryctolagus sp.. For the same compound, the values for the NOEC in the data set with Lepomis macrochirus, in the data set on Daphnia magna and in the data set on Tagia sp. were 0.42 mg/L, 1.7 mg/L and 62.6 mg/kg, respectively. The same compound yielded an LOAEL in the data set on Rattus norvegicus (chronic, duration: 2 years, organ weight) of 1 mg/kg-day. Further, the NOEL with Rattus norvegicus (setting [1]) was determined as 1.8 mg/kg-day; with Rattus norvegicus (short-term, oral, diet, body weight), 1.62 mg/kg-day. Moreover, the LR50 in the data set with Typhlodromus pyri was above 29.6 g/ha.
